Columns and labels:
[1] = target: T1, human VR1 (Homo sapiens, UniProt Q8NER1); test: Capsaicin-induced Ca2+ influx in the human VR1-transfected CHO cell line (Assay 1); format: cell-based; conditions: human VR1-CHOluc9aeq cells, stimulation with 10 nM capsaicin, Fluo-3 AM / FDSS-3000; compounds of purity about 40 to 90%; read-out: Activity Class (IC50 of capsaicin-induced Ca2+ influx)
T1 construct: expressed in transfected cells
Source text: [Measurement of Capsaicin-Induced Ca^2+ Influx in the Human VR1-Transfected CHO Cell Line] (Assay 1)
(1) Establishment of the Human VR1-CHOluc9aeq Cell Line
Human vanilloid receptor (hVR1) cDNA was cloned from libraries of axotomized dorsal root ganglia (WO 00/29577). The cloned hVR1 cDNA was constructed with pcDNA3 vector and transfected into a CHOluc9aeq cell line. The cell line contains aequorin and CRE-luciferase reporter genes as read-out signals. The transfectants were cloned by limiting dilution in selection medium (DMEM/F12 medium (Gibco BRL) supplemented with 10% FCS, 1.4 mM Sodium pyruvate, 20 mM HEPES, 0.15% Sodium bicarbonate, 100 U/ml penicillin, 100 μg/ml streptomycin, 2 mM glutamine, non-essential amino acids and 2 mg/ml G418). Ca^2+ influx was examined in the capsaicin-stimulated clones. A high responder clone was selected and used for further experiments in the project. The human VR1-CHOluc9aeq cells were maintained in the selection medium and passaged every 3-4 days at 1−2.5×10^5 cells/flask ([…]).
(2) Measurement of Ca^2+ influx using FDSS-3000
Human VR1-CHOluc9aeq cells were suspended in a culture medium which is the same as the selection medium except for G418 and seeded at a density of 1,000 cells per well into 384-well plates (black walled clear-base/Nalge Nunc International). Following the culture for 48 hrs the medium was changed to 2 μM Fluo-3 AM (Molecular Probes) and 0.02% Puronic F-127 in assay buffer (Hank's balanced salt solution (HBSS), 17 mM HEPES (pH7.4), 1 mM Probenecid, 0.1% BSA) and the cells were incubated for 60 min at 25° C. After washing twice with assay buffer the cells were incubated with a test compound or vehicle for 20 min at 25° C. Mobilization of cytoplasmic Ca^2+ was measured by FDSS-3000 (λex=488 nm, λem=540 nm/Hamamatsu Photonics) for 60 sec after the stimulation with 10 nM capsaicin. Integral R was calculated and compared with controls.
The data corresponds to the compounds as yielded by solid phase synthesis and thus to levels of purity of about 40 to 90%. For practical reasons, the compounds are grouped in four classes of activity as follows: IC50=A (< or =) 0.1 μM<B (< or =) 0.5 μM<C (< or =) 1 μM<D

T1 sequence (Q8NER1 whole entry): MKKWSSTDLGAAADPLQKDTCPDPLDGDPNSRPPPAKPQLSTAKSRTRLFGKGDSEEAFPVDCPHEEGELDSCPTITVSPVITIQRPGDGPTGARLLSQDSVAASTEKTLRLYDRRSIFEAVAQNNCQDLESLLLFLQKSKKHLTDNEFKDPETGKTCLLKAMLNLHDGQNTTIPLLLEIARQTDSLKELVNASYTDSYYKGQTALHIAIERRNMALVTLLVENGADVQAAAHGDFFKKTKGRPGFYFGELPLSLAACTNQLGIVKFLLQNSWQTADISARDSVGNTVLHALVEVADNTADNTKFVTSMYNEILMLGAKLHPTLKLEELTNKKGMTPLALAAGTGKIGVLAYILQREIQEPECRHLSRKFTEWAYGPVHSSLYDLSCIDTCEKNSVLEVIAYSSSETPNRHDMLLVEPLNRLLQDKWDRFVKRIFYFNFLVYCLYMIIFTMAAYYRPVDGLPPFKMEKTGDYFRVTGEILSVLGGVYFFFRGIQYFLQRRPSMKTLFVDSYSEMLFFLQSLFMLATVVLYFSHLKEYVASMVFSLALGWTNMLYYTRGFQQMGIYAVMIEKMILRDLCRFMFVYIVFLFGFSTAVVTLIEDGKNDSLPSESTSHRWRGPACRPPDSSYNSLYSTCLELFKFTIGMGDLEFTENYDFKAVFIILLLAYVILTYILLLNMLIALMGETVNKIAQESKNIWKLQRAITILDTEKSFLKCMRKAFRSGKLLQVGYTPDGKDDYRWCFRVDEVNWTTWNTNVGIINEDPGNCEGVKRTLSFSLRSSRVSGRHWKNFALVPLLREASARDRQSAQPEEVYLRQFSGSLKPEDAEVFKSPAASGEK

Compound	IC50 [1] [nM]	melting point [°C]
O=C(Nc1cccc(-c2ccc(Cl)cc2Cl)c1)Nc1cccc2c1CC(O)CC2 (stereo not shown) [Example 1-21]	< 100	208
COc1ccc(-c2ccc(CNC(=O)Nc3cccc4c3CC(O)CC4)cc2)cc1 (stereo not shown) [Example 1-31]	< 100	215 to 216
O=C(Nc1cccc(-c2ccc(C(=O)O)cc2)c1)Nc1cccc2c1CC(O)CC2 (stereo not shown) [Example 1-4]	< 100	281 to 284
COc1ccc(OC)c(-c2cccc(NC(=O)Nc3cccc4c3CC(O)CC4)c2)c1 (stereo not shown) [Example 1-15]	< 100	190
O=C(Nc1cccc(-c2cccc(C(F)(F)F)c2)c1)Nc1cccc2c1CC(O)CC2 (stereo not shown) [Example 1-23]	< 100	210
CN(C)c1ccc(-c2ccc(CNC(=O)Nc3cccc4c3CC(O)CC4)cc2)cc1 (stereo not shown) [Example 1-30]	< 100	205 to 206
CC(=O)c1ccc(-c2cccc(NC(=O)Nc3cccc4c3CC(O)CC4)c2)cc1 (stereo not shown) [Example 1-27]	< 100	216
COc1cccc(-c2cccc(NC(=O)Nc3cccc4c3CC(O)CC4)c2)c1 (stereo not shown) [Example 1-13]	< 100	204
O=C(Nc1cccc(-c2cc(Cl)cc(Cl)c2)c1)Nc1cccc2c1CC(O)CC2 (stereo not shown) [Example 1-19]	< 100	221
CCOC(=O)c1cccc(-c2cccc(NC(=O)Nc3cccc4c3CC(O)CC4)c2)c1 (stereo not shown) [Example 1-6]	< 100	142 to 144
O=C(Nc1cccc(-c2cc(Cl)ccc2Cl)c1)Nc1cccc2c1CC(O)CC2 (stereo not shown) [Example 1-22]	< 100	209
O=C(Nc1cccc(-c2cccc(Cl)c2)c1)Nc1cccc2c1CC(O)CC2 (stereo not shown) [Example 1-18]	< 100	209
Cc1cc(C)cc(-c2cccc(NC(=O)Nc3cccc4c3CC(O)CC4)c2)c1 (stereo not shown) [Example 1-12]	< 100	221
Cc1ccc(-c2cccc(NC(=O)Nc3cccc4c3CC(O)CC4)c2)cc1 (stereo not shown) [Example 1-1, N-(7-Hydroxy-5,6,7,8-tetrahydronaphthalen-1-yl)-N′-(4′-methylbiphenyl-3-yl)urea]	< 100	217 to 219

Continued, values first:

IC50 [1] [nM]	melting point [°C]	Compound
< 100	152 to 153	O=C(NCc1cccc(-c2ccc(Cl)cc2Cl)c1)Nc1cccc2c1CC(O)CC2 (stereo not shown) [Example 1-72]
< 100	197 to 198	O=C(NCc1cccc(-c2ccccc2F)c1)Nc1cccc2c1CC(O)CC2 (stereo not shown) [Example 1-66]
< 100	110 to 112	C[S+]([O-])c1ccc(-c2cccc(CNC(=O)Nc3cccc4c3CC(O)CC4)c2)cc1 (stereo not shown) [Example 1-74]
< 100	223	O=C(Nc1cccc(-c2cccc3ccccc23)c1)Nc1cccc2c1CC(O)CC2 (stereo not shown) [Example 1-75]
< 100	191 to 192	O=C(NCc1cccc(-c2cccc([N+](=O)[O-])c2)c1)Nc1cccc2c1CC(O)CC2 (stereo not shown) [Example 1-63]
< 100	128 to 129	COc1ccccc1-c1ccc(CNC(=O)Nc2cccc3c2CC(O)CC3)cc1 (stereo not shown) [Example 1-35]
< 100	211 to 212	Cc1ccc(-c2ccc(CNC(=O)Nc3cccc4c3CC(O)CC4)cc2)cc1 (stereo not shown) [Example 1-32]
< 100	205 to 206	Cc1cc(C)cc(-c2ccc(CNC(=O)Nc3cccc4c3CC(O)CC4)cc2)c1 (stereo not shown) [Example 1-51]
500 to 1000	150 to 151.2	COc1ccc(-c2cccc(C(=O)N(C)c3cccc4c3CC(O)CC4)c2)cc1 (stereo not shown) [Example 2-3]
< 100	175 to 176	O=C(NCc1cccc(-c2cccc(OC(F)(F)F)c2)c1)Nc1cccc2c1CC(O)CC2 (stereo not shown) [Example 1-56]
< 100	188 to 189	O=C(NCc1cccc(-c2ccc(F)c(F)c2)c1)Nc1cccc2c1CC(O)CC2 (stereo not shown) [Example 1-65]
< 100	215 to 217	O=C(Nc1cccc2c1CC(O)CC2)c1ccc(-c2ccccc2)cc1 (stereo not shown) [Example 2-4]
500 to 1000	205 to 206	COc1ccc(-c2ccc(CNC(=O)Nc3cccc4c3CC(O)CC4)cc2)cc1OC (stereo not shown) [Example 1-47]
< 100	216 to 217	CSc1ccc(-c2ccc(CNC(=O)Nc3cccc4c3CC(O)CC4)cc2)cc1 (stereo not shown) [Example 1-46]
< 100	207 to 208	CN(C)c1ccc(-c2cccc(CNC(=O)Nc3cccc4c3CC(O)CC4)c2)cc1 (stereo not shown) [Example 1-57]
< 100	218 to 219	O=C(NCc1ccc(-c2cccc(OC(F)(F)F)c2)cc1)Nc1cccc2c1CC(O)CC2 (stereo not shown) [Example 1-39]
< 100	177 to 178	O=C(NCc1ccc(-c2ccc(Cl)cc2Cl)cc1)Nc1cccc2c1CC(O)CC2 (stereo not shown) [Example 1-40]
< 100	139 to 140	O=C(NCc1ccc(-c2cc(Cl)ccc2Cl)cc1)Nc1cccc2c1CC(O)CC2 (stereo not shown) [Example 1-34]
